Reference: US8163788B2, “Low-molecular inhibitors of cytohesin-family guanine nucleotide exchange factors” (Rheinische Friedrich-Wilhelms Universitat Bonn, priority 2004, dated 2012)

Key:
Assay type in all cases: cell-based
[1] = tested on: human peripheral blood cells (PBL); assay: adhesion of human peripheral blood cells (PBL) to ICAM-1 after stimulation with OKT3 or PMA; conditions: FIG. 1
Excerpt: Human peripheral blood cells (PBL) were stimulated with agonists that activate a beta-2 integrin-dependent adhesion. In these primary human lymphocytes, the beta-2 integrin-dependent adhesion can be activated by cytohesins at the specific ligands ICAM-1.
The agonists employed were the monoclonal antibody OKT3 (hybridome of ATCC, mAb OKT3 purified on protein A, according to standard methods from Current Protocols in Immunology, 5th Ed., Coligan et al., Edts, Wiley 2004) against the CD3 complex, a T-cell receptor and phorbolester (PMA), which non-physiologically activates intracellular signal cascades in human PBL including integrin-dependent adhesion while circumventing cytohesins.
Cells from human blood were isolated according to standard methods (Current Protocols in Immunology, 5th Ed., 2004, Coligan et al., Edts, Wiley). Cell culture dishes coated with ICAM-1 were produced by means of recombinant ICAM-1-Fc fusion protein (Kolanus, W. et al., Cell 86, 233-42 (1996), Geiger, C. et al., EMBO J., 19, 2525-2536 (2000)). 300,000 human peripheral blood cells (PBL) were stimulated for 30 minutes with 2 μg/ml of OKT3 or 40 ng/ml of phorbolester (PMA) in Hank's BSS, (Gibco; composition (g/l): CaCl2x2H2O (0.185), KCl (0.4), KH2PO4 (0.06), MgCl2x6H2O (0.1), MgSO4x7H2O (0.1), NaCl (8.0), NaHCO3 (0.35), Na2HPO4 (0.048), D-glucose (1.0)), and placed for one hour in Hank's BSS onto the ICAM-1 coated cell culture dishes, whereby the agonists were not removed. Non-bound cells were removed by washing with Hank's BSS. The percentage of bound cells was determined by counting under a microscope using a standard counting grid.

[2] = tested on: human dendritic cells; assay: migration (chemotaxis) of dendritic cells in modified Boyden chambers on ICAM-1; conditions: 1 μM, 10 μM or 15 μM, 96 hours; chemokines CCL19 or CXCL12; FIG. 5
Description: Dendritic cells were produced in vitro by means of differentiation factors (IL-4 and GM-CSF) from blood monocytes that were isolated from peripheral mononuclear cells (PBMC) by Ficoll density gradient centrifugation from the human blood of anonymous donors.
The blood was mixed at a ratio of 1:1 with PBS (KCl 0.2 g/l, KH2PO4 0.2 g/l, NaCl 8 g/l, Na2HPO4 1.15 g/l, PAA, Cölbe)/2 mM EDTA and layered onto half the volume of Ficoll. Centrifugation was carried out at 300×g, 30 minutes with no brake. After the centrifugation, a centered white band appeared which contained the PBMC. This was picked up with PBS/2 mM EDTA, filled up to 50 ml and subjected to several washing steps at 640×g, 500×g, 400×g, 300×g and 200×g. Subsequently, the cells were picked up in a titer of 5×10^6/ml in “VLE-RPMI+/+”-medium (Biochrom, Berlin, containing 10% fetal calf serum (FCS) and 1% penicillin/streptomycin) and incubated for 90 minutes in an incubator at 37° C. [98.6° F.] and 5% CO2. During this time, the monocytes adhere to the bottom of the culture dish. […]
The quantitative analysis of the cell migration was carried out in modified Boyden chambers consisting of a 24-hole plate into which the Transwell® filters with a 5 μm pore size had been placed. […] [98.6° F.] and 5% CO2 in the incubator and subsequently, the number of cells that had migrated into the lower chamber in the direction of the chemokine was determined. […]

[3] = tested on: Peripheral blood lymphocytes; assay: cytotoxicity by propidium iodide (PI) flow cytometry; conditions: 50 nM to 50 μM
Description: The cytotoxicity of the compound according to Formula (9) was determined by means of propidium iodide (PI) employing flow cytometry. PI is a DNA stain that cannot penetrate into living cells. The experiments were carried out in an incubator at 37° C. [98.6° F.] and 5% CO2.
Peripheral blood lymphocytes were incubated with concentrations of 50 nM, 100 nM, 1 μM, 5 μM, 20 μM or 50 μM of the compound according to Formula (9) in “VLE-RPMI+/+” (Biochrom). The DMSO concentration per batch was 0.5%. A control batch contained 0.5% DMSO. After 2 hours, 24 hours and 72 hours, cells were removed and incubated with 2 μg/ml of PI for 5 minutes. The cells were centrifuged at 200×g for 8 minutes, washed with PBS, centrifuged again and analyzed in a flow cytometer (Beckmann Coulter, Krefeld).

In the case of `COc1nc(-c2ccc3c(c2)OCO3)n(-c2ccc(NC(=O)CSc3ccccc3)cc2)n1` [Compound 9], the IC50 ([1]; Homo sapiens, cells stimulated with OKT3, units given within the value, read-out: IC50 of inhibition of adhesion of PBL to ICAM-1) is reported as 500 to 1000 nM, the “effect on adhesion of PBL to ICAM-1” value ([1]; cells activated by phorbolester (PMA)) is reported as “not influenced” and the “inhibition of the migration of dendritic cells on the substrate ICAM-1” value [2] is reported as “concentration-dependent inhibition”. The “percentage of PI-positive (dead) cells” value ([3]; 2 hours, 24 hours and 72 hours) was “did not rise in a concentration-dependent or time-dependent manner” and the cytotoxicity ([3]; conclusion from PI flow cytometry, up to 72 hours) was “no cytotoxicity or at least no clearly detectable cytotoxicity”.
